ChEMBL document CHEMBL5365461, “Degradation of Cyclin-Dependent Kinase 9/Cyclin T1 by Optimized Microtubule-Associated Protein 1 Light Chain 3 Beta-Recruiting Coumarin Analogs” (J Med Chem, 2023)
Active and inactive are the calls of the source. The calls are words filed in the database; no cut-off is given here.

Key:
U2932 [1] = assay: Cytotoxicity against human U2932 cells assessed as inhibition of cell growth measured after 72 hrs by CCK-8 assay; format: functional, cell-based; conditions: U2932, 72 h
[2] = molecular target: Cyclin-dependent kinase 9 (Homo sapiens) (UniProt P50750); assay: (§1) Inhibition of GST-fused human full-length CDK9 (1 to 372(end) residues)/N-terminal GST-fused His-tagged human full-length CyclinT1 (1 to 726(end) residues) expressed in baculovirus expression system at 100 nM using CDK7/9 tide as substrate incubated for 120 mins in presence of ATP by ADP-Glo Kinase assay relative to control
Cyclin-dependent kinase 9 (Homo sapiens), sequence (P50750 whole entry, the tested form may be a part): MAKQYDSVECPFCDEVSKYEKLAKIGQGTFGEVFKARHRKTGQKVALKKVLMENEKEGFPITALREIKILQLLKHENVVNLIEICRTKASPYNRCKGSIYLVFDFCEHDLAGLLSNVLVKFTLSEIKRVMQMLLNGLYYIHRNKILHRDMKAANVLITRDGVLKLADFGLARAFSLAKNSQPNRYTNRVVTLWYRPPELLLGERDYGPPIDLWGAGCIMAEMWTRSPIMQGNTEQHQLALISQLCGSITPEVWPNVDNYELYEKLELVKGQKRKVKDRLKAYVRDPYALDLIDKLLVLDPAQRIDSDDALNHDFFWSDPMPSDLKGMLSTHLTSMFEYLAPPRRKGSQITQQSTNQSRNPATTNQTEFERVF

[3] = molecular target: CDK9/cyclin T1 (Homo sapiens) (UniProt O60563+P50750); assay: Induction of CDK9/CyclinT1 degradation in human U2932 cells at 100 nM measured after 24 hrs by immunoblotting analysis; format: cell-based
[4] = molecular target: Cyclin-dependent kinase 9 (Homo sapiens) (UniProt P50750); assay: as §1, with “10” for “100”
U2932 [5] = assay: Induction of apoptosis in human U2932 cells assessed as early apoptotic cells at 1000 nM incubated for 24 hrs by AnnexinV-FITC/PI staining based flow cytometry analysis (reference value: 6.20%); format: functional
U2932 [6] = assay: Induction of apoptosis in human U2932 cells assessed as necrotic cells at 1000 nM incubated for 24 hrs by AnnexinV-FITC/PI staining based flow cytometry analysis (reference value: 0.92%); format: functional
U2932 [7] = assay: Induction of apoptosis in human U2932 cells assessed as viable cells at 1000 nM incubated for 24 hrs by AnnexinV-FITC/PI staining based flow cytometry analysis (reference value: 86.9%); format: functional; conditions: read-out: Activity
U2932 [8] = assay: Induction of apoptosis in human U2932 cells assessed as late apoptotic cells at 1000 nM incubated for 24 hrs by AnnexinV-FITC/PI staining based flow cytometry analysis (reference value: 5.95%); format: functional

SMILES	IC50 (U2932 [1]) [nM]	inhibition [2] [%]	Activity [3]	inhibition [4] [%]	Activity (U2932 [5]) [%]	Activity (U2932 [6]) [%]	viability at 1 µM (U2932 [7]) [%]	Activity (U2932 [8]) [%]
CC(C)(C)c1cnc(CSc2cnc(NC(=O)C3CCN(CCCOc4cc(O)c5c(-c6ccc(F)cc6)cc(=O)oc5c4)CC3)s2)o1	124	80	Active					
CC(C)(C)c1cnc(CSc2cnc(NC(=O)C3CCN(CCCOc4cc(O)c5ccc(=O)oc5c4)CC3)s2)o1	157	78	Active	45				
CC(C)(C)c1cnc(CSc2cnc(NC(=O)C3CCN(CCCOc4ccc5c(-c6ccccc6)cc(=O)oc5c4)CC3)s2)o1	320	69		6				
Cc1cc(=O)oc2cc(O)cc(OCCOCCN3CCC(C(=O)Nc4ncc(SCc5ncc(C(C)(C)C)o5)s4)CC3)c12	180	63		5				
COc1ccc(-c2cc(=O)oc3cc(OCCCN4CCC(C(=O)Nc5ncc(SCc6ncc(C(C)(C)C)o6)s5)CC4)cc(O)c23)cc1	104	83	Active	33				
CC(C)(C)c1cnc(CSc2cnc(NC(=O)C3CCN(CC(=O)NCCOCCOCCOCCNc4cccc5c4C(=O)N(C4CCC(=O)NC4=O)C5=O)CC3)s2)o1 (centres undefined)	306	39	Active	4	8.93	1.55	67.2	22.3
CC(C)(C)c1cnc(CSc2cnc(NC(=O)C3CCN(CCCCCOc4cc(O)cc5oc(=O)ccc45)CC3)s2)o1	109	83		24				
CC(C)(C)c1cnc(CSc2cnc(NC(=O)C3CCN(CCCOc4cc(O)cc5oc(=O)cc(-c6ccncc6)c45)CC3)s2)o1	484	55						
Cc1cc(=O)oc2cc(OCCCCCN3CCC(C(=O)Nc4ncc(SCc5ncc(C(C)(C)C)o5)s4)CC3)cc(O)c12	98	57		2				
Cc1cc(=O)oc2cc(O)cc(OCCN3CCC(C(=O)Nc4ncc(SCc5ncc(C(C)(C)C)o5)s4)CC3)c12	424	73		23				
Cc1cc(=O)oc2cc(OCCOCCN3CCC(C(=O)Nc4ncc(SCc5ncc(C(C)(C)C)o5)s4)CC3)cc(O)c12	145	71		28				
CC(C)(C)c1cnc(CSc2cnc(NC(=O)C3CCN(CCCOc4cc(O)c5c(-c6ccccc6)cc(=O)oc5c4)CC3)s2)o1	120	86	Active	-4				
CC(C)(C)c1cnc(CSc2cnc(NC(=O)C3CCN(CCCOc4cc(O)cc5oc(=O)cc(-c6ccc(F)cc6)c45)CC3)s2)o1	346	68						
Cc1cc(=O)oc2cc(OCCCCN3CCC(C(=O)Nc4ncc(SCc5ncc(C(C)(C)C)o5)s4)CC3)cc(O)c12	133	73		26				
CC(C)(C)c1cnc(CSc2cnc(NC(=O)C3CCN(CCCOc4cccc5oc(=O)cc(-c6ccccc6)c45)CC3)s2)o1	534	36		-8				
CC(C)(C)c1cnc(CSc2cnc(NC(=O)C3CCN(CCCOc4cc(O)cc5oc(=O)cc(-c6ccccc6)c45)CC3)s2)o1	624	51		-8				
COc1ccc(-c2cc(=O)oc3cc(O)cc(OCCCN4CCC(C(=O)Nc5ncc(SCc6ncc(C(C)(C)C)o6)s5)CC4)c23)cc1	604	61		-5				
Cc1cc(=O)oc2cc(O)cc(OCCCN3CCC(C(=O)Nc4ncc(SCc5ncc(C(C)(C)C)o5)s4)CC3)c12	157	55	Active					
CC(C)(C)c1cnc(CSc2cnc(NC(=O)C3CCN(CCCOc4cc(O)c5c(-c6ccncc6)cc(=O)oc5c4)CC3)s2)o1	192	69	Active	15				
Cc1cc(=O)oc2cc(O)cc(OCCCCN3CCC(C(=O)Nc4ncc(SCc5ncc(C(C)(C)C)o5)s4)CC3)c12	142	79		9				
CC(C)(C)c1cnc(CSc2cnc(NC(=O)C3CCN(CCCOc4cc(O)cc5oc(=O)ccc45)CC3)s2)o1	125	52	Active	-3				
Cc1cc(=O)oc2cc(OCCN3CCC(C(=O)Nc4ncc(SCc5ncc(C(C)(C)C)o5)s4)CC3)cc(O)c12	155	69		37				
